Measured values taken from patent US20140148355A1, “COMPOSITIONS AND METHODS FOR ANALYSIS OF H3K4 METHYLATED CHROMATIN” (UNIVERSITY OF OSLO, priority 2011, published 2014).

Tested on: H3K4 methylated chromatin
Assay: Chromatin pulldown (ChPD) with western blot detection
Assay type: binding
Settings: antibodies against each of the three H3K4 methylation states; Arabidopsis seedling chromatin
Description: FIG. 8 Chromatin pulldown (ChPD) using the ASHH2 CW. […] Modified histones were visualised by western blot using antibodies as indicated. Molecular size markers are shown to the right. (B) qPCR with primers for assumed ASHH2 target genes on DNA isolated from seedling chromatin pulled down with GST-CWASHH2. ChPD with GST alone was used as a negative control. Data are shown as percent of input. The Ta3 retrotransposon was used as reference. Standard deviations are shown. (C) ChIP using antibodies against H3K4me1, H3K4me3 and H3K36me3 and primers for the same genes as in (B). Data are shown relative to Ta3. (D) ChPD from wt and ashh2 mutant seedlings as in (A) using antibodies as indicated. ChPD with GST alone was used as a negative control and histone H3 as reference.
Chromatin pull-down (ChPD) was performed using crude chromatin in ChIP dilution buffer (1.1% Triton X-100, 1.2 mM EDTA, 16.7 mM Tris-HCL pH 8, 167 mM NaCl) prepared as for ChIP (Gendrel et al., 2005) incubated with 8 μg GST-CW fusion protein and control proteins (only GST alone, or together with GST-CW-W874A and GST-WIYLD) over night. For western blotting, the pulled down chromatin was washed three times in ChIP dilution buffer, run on a 15% SDS-PAGE and blotted onto a PVDF membrane. […]

WIYLD domain of SUVR4: WIYLD domain of the Arabidopsis SET-domain protein SUVR4, GST fusion, negative control [reference compound]
pull down of H3K4 methylated chromatin (western blot signal): did not pull down
